# How the values were obtained:
# Assay type in all cases: in vivo, rats
# [1] = Distribution of Teraphtalum with the known regional administration (general trunk of portal vein); settings: known regional method, 5 mg/kg
# Description: (§1) The studies were carried out on mongrel rats weighing 150 g, obtained from the N. V. Blokhin ONTs breeder and contained in the vivarium of that center.
# Teraphtalum (TP) was administered once into the general trunk of the portal vein in a dose of 5 mg/kg (this was 1 mg of TP for a rat weighing 200 g). Accumulation of the preparation in the liver, lungs and its level in blood plasma were evaluated by the spectrophotometric method 5, 35 and 240 minutes after the administration.
# [2] = Distribution of Teraphtalum with the proposed regional method (branch of portal vein of target lobe with occlusion); settings: for Content of Teraphtalum: proposed method, 0.3 mg (0.6 ml, 0.01% solution), healthy rats
# Description: (§2) Practically speaking, the method is carried out in the following manner. A median laparotomy is conducted, afferent (a branch of the portal vein and hepatic artery) and efferent (a branch of the hepatic vein) vessels of the target lobe of the liver are isolated. They are taken on tourniquets. A puncture of the branch of the portal vein is made, the preparation is introduced therein, simultaneously stopping the flow of blood: the blood inflow—through branches of the portal vein (proximal to the place of puncture) and the hepatic artery, outflow—through a branch of the hepatic vein. Restoration of the blood flow is accomplished by removing clamps from the vessels 5–15 minutes after administration of the preparation.
# as §1
# (§3) Teraphtalum in a dose of 60 or 300 μg per rat in the form of 0.6 ml of a 0.01 and 0.05% solution was administered into a branch of the portal vein of a target lobe of the liver.
# Accumulation of the preparation in the target lobe (subjected to occlusion), in the intact lobe of the liver (not subjected to occlusion) and also in the blood plasma were studied 5, 35 and 240 minutes after administration of the preparation by the proposed method.
# [3] = Effect of length of occlusion of afferent and abducent vessels on accumulation of Teraphtalum; settings: for Content of Teraphtalum: 35 min after administration
# Description: as §2, §3
# The results of a study of the effect of the length of the period of occlusion of the afferent and abducent vessels of the target lobe of the liver on the accumulation of TP therein are presented in Table 3.
smiles,measurement,setting,value
"O=C(O)c1cc2c(cc1C(=O)O)C1=Nc3c4cc(C(=O)O)c(C(=O)O)cc4c4[n]3[Co][n]3c(c5cc(C(=O)O)c(C(=O)O)cc5c3=NC3=NC(=N4)c4cc(C(=O)O)c(C(=O)O)cc43)=NC2=N1 [Teraphtalum, cobalt octacarboxy phthalocyanine]",Content of Teraphtalum,"[1]; liver, 5 min after administration",15 μg/g of untreated tissue
same,Content of Teraphtalum,"[1]; liver, 35 min after administration",60 μg/g of untreated tissue
same,Content of Teraphtalum,"[1]; liver, 240 min after administration",51 μg/g of untreated tissue
same,Content of Teraphtalum,"[1]; lungs, 5 min after administration",46 μg/g of untreated tissue
same,Content of Teraphtalum,"[1]; lungs, 35 min after administration",28 μg/g of untreated tissue
same,Content of Teraphtalum,"[1]; lungs, 240 min after administration",57 μg/g of untreated tissue
same,Content of Teraphtalum,"[1]; plasma, 5 min after administration",92.4 μg/g of untreated tissue
same,Content of Teraphtalum,"[1]; plasma, 35 min after administration",39.6 μg/g of untreated tissue
same,Content of Teraphtalum,"[1]; plasma, 240 min after administration",14.4 μg/g of untreated tissue
same,"Concentration of TP in target lobe of liver, proposed method versus known regional method","[2]; first minutes after administration, dose in proposed method 16.5 times less",2 times higher
same,Content of Teraphtalum,"[2]; intact lobe of liver, 5 min",7 μg/g of untreated tissue
same,Content of Teraphtalum,"[2]; intact lobe of liver, 35 min",5 μg/g of untreated tissue
same,Content of Teraphtalum,"[2]; intact lobe of liver, 240 min",9 μg/g of untreated tissue
same,Content of Teraphtalum,"[2]; plasma, 5 min",3 μg/g of untreated tissue
same,Content of Teraphtalum,"[2]; target lobe of liver, 5 min",30 μg/g of untreated tissue
same,Content of Teraphtalum,"[2]; target lobe of liver, 35 min",33 μg/g of untreated tissue
same,Content of Teraphtalum,"[2]; target lobe of liver, 240 min",48 μg/g of untreated tissue
same,Content of Teraphtalum,"[3]; blood plasma, control = selective administration without occlusion",6 µg/g
same,Content of Teraphtalum,"[3]; blood plasma, occlusion 5 min, 0.3 mg (0.6 ml of 0.01% solution), proposed method",5 µg/g
same,Content of Teraphtalum,"[3]; blood plasma, occlusion 15 min, 0.3 mg (0.6 ml of 0.01% solution), proposed method",7 µg/g
same,Content of TP,"[3]; intact lobe of liver as worded in text, without occlusion (control), 30 minutes after administration",20 µg/g
same,Content of Teraphtalum,"[3]; intact lobe of liver, occlusion 5 min, 0.3 mg (0.6 ml of 0.01% solution), proposed method",7 µg/g
same,Content of Teraphtalum,"[3]; intact lobe of liver, occlusion 15 min, 0.3 mg (0.6 ml of 0.01% solution), proposed method",6 µg/g
same,Content of Teraphtalum,"[3]; intact lobe, control = selective administration without occlusion",17 µg/g
same,Content of Teraphtalum,"[3]; target lobe of liver, occlusion 5 min, 0.3 mg (0.6 ml of 0.01% solution), proposed method",35 µg/g
same,Content of Teraphtalum,"[3]; target lobe of liver, occlusion 15 min, 0.3 mg (0.6 ml of 0.01% solution), proposed method",35 µg/g
same,Content of Teraphtalum,"[3]; target lobe, control = selective administration without occlusion",20 µg/g
same,Content of TP,"[3]; that (target) lobe as worded in text, without occlusion (control), 30 minutes after administration",17 µg/g
same,Level of TP in the plasma,"[3]; without occlusion (control), 30 minutes after administration",6 μg/g of untreated tissue

# Reference: patent US7220425B2, “Method for therapy of liver tumors” (Federalnoe Gosudarstvennoe Unitarnoe Predpriyatie …, priority 2000, dated 2007)
